# Measured values reported in patent publication US8129163B2, “Gene suitable for alcohol dehydrogenase, vector and transformant” (Kaneka Corporation, priority 2006, dated 2012).
# Read-outs that look alike come from different tables or passages of the source.
# Columns and labels:
# RMA [1] = type: biochemical, Candida maltosa IFO 1977 strain; details: for Relative activity (%) of RMA after treatment with inhibitor: inhibitor 1 mM, 30° C. for 30 minutes, untreated RMA = 100%; for inhibition of RMA (in words): treatment at 30° C. for 30 minutes, concentrations of Table 6
# Description: In 1 mM concentration solution or mixture of various compounds, a polypeptide is treated at 30° C. for 30 minutes. […] Concentrations of agents at the time of treatment are illustrated in Table 6.
# [2] = tested on: enzyme derived from Candida parapsilosis IFO 1396 strain; details: cited from earlier work
# RMA [3] = tested on: RMA
# Description: Progress of oxidization reaction may be easily evaluated by, at first, preparing a reaction mixture including 2.5 mMNAD^+, a 50 mM target alcohol compound, oxidation activity of which is to be evaluated, and a polypeptide of the present invention in 50 mM tris-HCl buffer (pH 9.0), then allowing the reaction mixture to react at 30° C. and finally observing increase of absorbance at the wavelength of 340 nm, which is accompanied by increase of NADH level. […] Rapid increasing rate of the absorbance reflects high ability of the polypeptide of the present invention to oxidize a target alcohol compound. The oxidizing ability of a polypeptide may be expressed in terms of numerical values. Thus, oxidizing activity 1 U is defined as an enzyme level that catalyzes generation of 1 μmol of NADH per minute.
# Physicochemical properties of RMA as obtained in the above manner were studied. Each activity was determined in accordance with a method as described in [Method for evaluating oxidizing ability to an alcohol compound].
# RMA [4] = type: biochemical, Candida maltosa IFO 1977 strain
SMILES,Relative activity (%) of RMA after treatment with inhibitor (RMA [1]),activity (RMA [3]),further results
O[C@H](CS)[C@H](O)CS (racemic) [Dithiothreitol],92.2%,,inhibition of RMA (in words) (RMA [1]): did not; inhibition of enzyme activity (in words) [2]: inhibited
"CC(O)CC(C)O (stereo not drawn) [2,4-Pentandiol]",,34%,
CCC(O)C(=O)O (stereo not drawn) [2-Hydroxybutyric acid],,4.9%,
CCCCCCC(C)O (stereo not drawn) [2-Octanol],,134%,
CCCC(C)O (stereo not drawn) [2-Pentanol],,183%,
CC(C)O [2-Propanol],,66%,
CCC(O)CC [3-Pentanol],,40%,
"C[C@@H](O)C[C@@H](C)O [(2R,4R)-2,4-Pentandiol]",,0.5%,
"C[C@@H](O)CO [(R)-1,2-Propandiol]",,0.7%,
"C[C@@H](O)CCO [(R)-1,3-Butandiol]",,1.3%,
"C[C@H](O)CO [(S)-1,2-propandiol]",,0.7%,
"C[C@H](O)CCO [(S)-1,3-Butandiol]",,9.5%,
C[C@H](O)CN [(S)-1-Amino-2-propanol],,2%,
C[C@H](O)c1ccccc1 [(S)-1-Phenylethanol],,307%,
C/C=C/C(=O)O [Crotonic acid],,,"Relative activity (%) of RMA after treatment with inhibitor (RMA [4]; inhibitor 50 mM, 30° C. for 30 minutes, untreated RMA = 100%): 10.4%"
"O=S(=O)([O-])[O-].[Cu+2] [CuSO4, copper sulfate]",28.5%,,inhibition of RMA (in words) (RMA [1]): inhibited
OC1CCCCC1 [Cyclohexanol],,30%,
O=C(O)CN(CCN(CC(=O)O)CC(=O)O)CC(=O)O [Ethylenediaminetetraacetic acid],,,Relative activity (%) of RMA after treatment with inhibitor (RMA [4]): 12.9%; inhibition of RMA (in words) (RMA [4]): inhibited; inhibition of enzyme activity (in words) [2]: not inhibited
"[Cl][Hg][Cl] [HgCl2, mercury chloride]",0.0%,,inhibition of RMA (in words) (RMA [1]): inhibited
O=C(O)CI [Iodoacetic acid],,,Relative activity (%) of RMA after treatment with inhibitor (RMA [4]): 78.9%
CO [Methanol],,0.6%,
CCN1C(=O)C=CC1=O [N-Ethylmaleimide],94.7%,,
NO [NH2OH],,,"Relative activity (%) of RMA after treatment with inhibitor (RMA [4]; inhibitor 0.01 mM, 30° C. for 30 minutes, untreated RMA = 100%): 96.1%"
O=S(=O)(F)Cc1ccccc1 [Phenylmethanesulfonyl fluoride],96.0%,,
"O=S(=O)([O-])[O-].[Zn+2] [ZnSO4, zinc sulfate]",23.1%,,inhibition of RMA (in words) (RMA [1]): inhibited
c1cnc2c(c1)ccc1cccnc12 [o-Phenanthroline],0.0%,,inhibition of RMA (in words) (RMA [1]): inhibited
O=C(O)c1cc[c]([Hg][Cl])cc1 [p-Chloromercuribenzoate],,,"Relative activity (%) of RMA after treatment with inhibitor (RMA [4]; inhibitor 0.05 mM, 30° C. for 30 minutes, untreated RMA = 100%): 96.3%"
O=C(O)c1ccc(O)cc1 [p-Hydroxybenzoic acid],91.5%,,
OCCS [β-Mercaptoethanol],95.4%,,inhibition of RMA (in words) (RMA [1]): did not; inhibition of enzyme activity (in words) [2]: inhibited
